In patent publication US20060165785A1, “Method of chemically stabilizing pharmaceutical formulations with cholesterol” (priority 2005, published 2006):

Assay: Chemical stability of composite particles in lactose carrier blend stored at 60° C. and 75% relative humidity for seven days
Format: physicochemical
Protocol: A 20 gram blend of 5% cholesterol coated salmeterol particles was prepared with a concetration of 0.8% w/w salmeterol base in alpha lactose monohydrate. Approximately 10 grams of alpha lactose monohydrate with target particle size of 65-85μm (Borcula, The Netherlands) was weighed into the bottom of a 120 mL amber glass jar. 0.247g of 5% cholesterol coated salmeterol HNA was added on top of the lactose and 9.77 g of lactose was added on top of the mixture. The mixture was blended using a Turbula T2F blender at 96 RPM for 5 minutes. The jar was removed from the blender and excess blend was tapped from the top of the jar. One additional blending cycle was performed for 5 minutes at 96 RPM to complete the process.
Samples of particles prepared in accordance with Example 2 above were stored in controlled atmospheric conditions of 60° C. and 75% relative humidity for seven days. The percentage of active ingredient was taken at day 0 and day 7. […] When cholesterol was included, the degradation was reduced to less than 2%.
It has been observed that micronized SX degrades at 60 ° C. and 75% relative humidity (RH) conditions when in a neat blend with lactose.

% Impurities of Composite Particles in 0.8% Salmeterol Base/Lactose Blend, 7 Days at 60° C. and 75% RH (0.8% salmeterol base/lactose blend, 7 days at 60° C. and 75% RH) [%] | % Impurities of Composite Particles in 0.8% Salmeterol Base/Lactose Blend, 7 Days at 60° C. and 75% RH (0.8% salmeterol base/lactose blend, 7 days at 60° C. and 75% RH, listed as MIC SX from alternate study) [%] | % Impurities of Composite Particles in 0.8% Salmeterol Base/Lactose Blend, Initial (0.8% salmeterol base/lactose blend, initial (day 0)) [%] | drop in the amount of SX present in the formulation (degradation) at day 7 (formulation with carrier, 60° C. and 75% relative humidity, day 7 vs day 0) [%] | % Impurities of Composite Particles in 0.4% GW597901M Base/Lactose Blend, 7 Days at 60° C. and 75% RH (0.4% GW597901M base/lactose blend, 7 days at 60° C. and 75% RH) [%] | % Impurities of Composite Particles in 0.4% GW597901M Base/Lactose Blend, Initial (0.4% GW597901M base/lactose blend, initial) [%] | Structure (SMILES)
7.4 | 8.0 | 0.5 | 7 | – | – | OCc1cc(C(O)CNCCCCCCOCCCCc2ccccc2)ccc1O (stereo not drawn) [Micronized SX, salmeterol xinafoate]
– | – | – | – | 10.0 | 3.9 | NS(=O)(=O)c1cccc(CCCCOCCCCCCNC[C@H](O)c2ccc(O)c(CO)c2)c1 [Micronized GW597901M, 3-(4-{[6-({(2R)-2-hydroxy-2-[4-hydroxy-3-(hydroxymethyl)phenyl]ethyl}amino)hexyl]oxy}-butyl)benzene-sulfonamide]
